This passage reports TGI results from PubChem BioAssay (NCI).

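Where inhibition never reached the appropriate level, the endpoint shown equals the highest concentration tested. Otherwise, values were interpolated linearly from a five-concentration, 48-hour dose response in 96-well plates. The concentration for full growth arrest is given as TGI.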

The test system of one experiment is MDA-MB-435. In words: NCI anticancer screen, dose series, 48 h.
As to `N#Cc1c(-c2ccc(Cl)cc2)c2c(n(C3OC(CO)C(O)C(O)C3O)c1=S)CCCC2` (configuration not stated), the TGI was > 100 µM.
Turning to `COc1ccc2nc(N/N=C/c3sccc3C)cc(C)c2c1`, the TGI was determined as 43.9 µM.
Regarding `Nc1cc([N+](=O)[O-])ccc1C(=O)N1CCC[C@H]1CO`, the TGI is > 100 µM.
Still for that read-out and setting: for `CC[C@@H](C)[C@H](NC(=O)[C@H](Cc1ccccc1)NCC(F)(F)F)C(=O)OC(C)(C)C` the value was > 100 µM; for `NC(=Nc1ccccc1Cl)c1ccccc1N`, > 100 µM.
The same measure, in the same setting: for `C[C@@H](C(=O)O)N1C(c2ccco2)=C(/C(C=O)=C\c2ccco2)C(=O)/C1=C\c1ccco1` the value was > 100 µM.
The same measure, in the same setting: the figure for `O=c1oc2ccccc2c(Nc2ccc3c(c2)Sc2ccccc2O3)c1[N+](=O)[O-]` is > 100 µM; for `O=C(NN1C(=O)C(Cl)C1c1ccc(Cl)cc1)c1c(Cl)c(Cl)c(Cl)c(Cl)c1-c1nc2ccccc2[nH]1` (configuration not stated) it is 80.5 µM.

In a further experiment the test system is NCI/ADR-RES ovarian. In words: NCI anticancer screen, dose series, 48 h.
In the case of `O=C(O)CO[C@@]12C#C/C=C\C#C[C@@H]3N(C(=O)Oc4ccccc4)c4ccccc4[C@]14O[C@@]34CCC2`, the TGI was > 100 µM.
Still for that read-out and setting: the figure for `CC(C)(C)C1=C(Br)C(C(C)(C)C)OP1(=O)O` (configuration not stated) is > 100 µM.
On the same count and under the same terms, the figure for `Cc1c(-c2ccccc2)cc(O)c2nc3ccccc3n12` is > 100 µM; for `Cc1cccc(Cl)c1NCC(O)CN1CCN(C)CC1` (configuration not stated) it is > 100 µM; for `Cc1ccc(C(=O)O)c(/C=C2\Cc3ccc(C)cc3C2=O)c1` it is > 100 µM.
On the same count and under the same terms, the figure for `COc1c(=O)cc2cc[nH]c3cc[nH]c1c23` is > 100 µM; for `CC(C)NC(=O)OCc1c2c(n(C)c1COC(=O)NC(C)C)-c1cc(Cl)c(Cl)cc1CC2` it is > 100 µM; for `CCOC(=O)c1sc(=S)n(-c2ccc(Cl)cc2)c1-n1cc(-c2ccccc2)c(C#N)c1N` it is 47.1 µM.
As to `COC1(OC)N=C(N)C2(C#N)C(c3ccccc3)NC3=C(CCC3)C12C#N` (configuration not stated), the TGI was > 100 µM.
Same read-out and setting: for `Cc1cc(C)c2c(=O)cc(-c3cccc4ccccc34)[nH]c2n1` the value was > 25.9 µM; for `N#Cc1c(-c2ccc(Cl)cc2)c2c(n(C3OC(CO)C(O)C(O)C3O)c1=S)CCCC2` (configuration not stated), > 100 µM; for `COc1ccc2nc(N/N=C/c3sccc3C)cc(C)c2c1`, 55.1 µM.
`Nc1cc([N+](=O)[O-])ccc1C(=O)N1CCC[C@H]1CO`: the TGI is > 100 µM.
With `CC[C@@H](C)[C@H](NC(=O)[C@H](Cc1ccccc1)NCC(F)(F)F)C(=O)OC(C)(C)C`, the TGI is > 100 µM.
For `NC(=Nc1ccccc1Cl)c1ccccc1N`, the TGI was > 100 µM.
As to `C[C@@H](C(=O)O)N1C(c2ccco2)=C(/C(C=O)=C\c2ccco2)C(=O)/C1=C\c1ccco1`, the TGI is > 100 µM.
Same read-out and setting: for `O=c1oc2ccccc2c(Nc2ccc3c(c2)Sc2ccccc2O3)c1[N+](=O)[O-]` the value was > 100 µM; for `O=C(NN1C(=O)C(Cl)C1c1ccc(Cl)cc1)c1c(Cl)c(Cl)c(Cl)c(Cl)c1-c1nc2ccccc2[nH]1` (configuration not stated), > 100 µM.

The subject of another experiment is OVCAR-3 ovarian. In words: NCI anticancer screen, dose series, 48 h.
Consider `O=C(O)CO[C@@]12C#C/C=C\C#C[C@@H]3N(C(=O)Oc4ccccc4)c4ccccc4[C@]14O[C@@]34CCC2`, for which the TGI was > 100 µM.
`CC(C)(C)C1=C(Br)C(C(C)(C)C)OP1(=O)O` (configuration not stated): the TGI is > 100 µM.
`Cc1c(-c2ccccc2)cc(O)c2nc3ccccc3n12`: the TGI is > 100 µM.
On the same count and under the same terms, for `Cc1cccc(Cl)c1NCC(O)CN1CCN(C)CC1` (configuration not stated) the value was > 100 µM.
Regarding `Cc1ccc(C(=O)O)c(/C=C2\Cc3ccc(C)cc3C2=O)c1`, the TGI is > 100 µM.
Molecule `COc1c(=O)cc2cc[nH]c3cc[nH]c1c23` yielded a TGI of 47.8 µM.
`CC(C)NC(=O)OCc1c2c(n(C)c1COC(=O)NC(C)C)-c1cc(Cl)c(Cl)cc1CC2` displayed a TGI of 82.8 µM.
Still for that read-out and setting: the figure for `CCOC(=O)c1sc(=S)n(-c2ccc(Cl)cc2)c1-n1cc(-c2ccccc2)c(C#N)c1N` is 32.6 µM.
The same measure, in the same setting: the figure for `N#Cc1c(-c2ccc(Cl)cc2)c2c(n(C3OC(CO)C(O)C(O)C3O)c1=S)CCCC2` (configuration not stated) is > 100 µM; for `COc1ccc2nc(N/N=C/c3sccc3C)cc(C)c2c1` it is 45.8 µM; for `CC[C@@H](C)[C@H](NC(=O)[C@H](Cc1ccccc1)NCC(F)(F)F)C(=O)OC(C)(C)C` it is > 100 µM.
On the same count and under the same terms, for `NC(=Nc1ccccc1Cl)c1ccccc1N` the value was > 100 µM; for `C[C@@H](C(=O)O)N1C(c2ccco2)=C(/C(C=O)=C\c2ccco2)C(=O)/C1=C\c1ccco1`, > 100 µM.
Take `O=c1oc2ccccc2c(Nc2ccc3c(c2)Sc2ccccc2O3)c1[N+](=O)[O-]`: the TGI came out at 47.5 µM.
Same read-out and setting: for `O=C(NN1C(=O)C(Cl)C1c1ccc(Cl)cc1)c1c(Cl)c(Cl)c(Cl)c(Cl)c1-c1nc2ccccc2[nH]1` (configuration not stated) the value was > 100 µM.

The next experiment has as its system SF-295 CNS. In words: NCI anticancer screen, dose series, 48 h.
On to `CC(C)(C)C1=C(Br)C(C(C)(C)C)OP1(=O)O` (configuration not stated), for which the TGI was > 100 µM.
On the same count and under the same terms, for `Cc1c(-c2ccccc2)cc(O)c2nc3ccccc3n12` the value was > 100 µM.
For `Cc1cccc(Cl)c1NCC(O)CN1CCN(C)CC1` (configuration not stated), the TGI was > 100 µM.
Still for that read-out and setting: the figure for `Cc1ccc(C(=O)O)c(/C=C2\Cc3ccc(C)cc3C2=O)c1` is > 100 µM; for `COc1c(=O)cc2cc[nH]c3cc[nH]c1c23` it is > 100 µM.
Still for that read-out and setting: the figure for `CC(C)NC(=O)OCc1c2c(n(C)c1COC(=O)NC(C)C)-c1cc(Cl)c(Cl)cc1CC2` is > 100 µM; for `CCOC(=O)c1sc(=S)n(-c2ccc(Cl)cc2)c1-n1cc(-c2ccccc2)c(C#N)c1N` it is 33.6 µM; for `COC1(OC)N=C(N)C2(C#N)C(c3ccccc3)NC3=C(CCC3)C12C#N` (configuration not stated) it is > 100 µM.
Same read-out and setting: the figure for `Cc1cc(C)c2c(=O)cc(-c3cccc4ccccc34)[nH]c2n1` is > 100 µM.
Take `N#Cc1c(-c2ccc(Cl)cc2)c2c(n(C3OC(CO)C(O)C(O)C3O)c1=S)CCCC2` (configuration not stated): the TGI was > 100 µM.
In the case of `COc1ccc2nc(N/N=C/c3sccc3C)cc(C)c2c1`, the TGI came out at 21.7 µM.
On the same count and under the same terms, for `Nc1cc([N+](=O)[O-])ccc1C(=O)N1CCC[C@H]1CO` the value was > 100 µM; for `CC[C@@H](C)[C@H](NC(=O)[C@H](Cc1ccccc1)NCC(F)(F)F)C(=O)OC(C)(C)C`, > 100 µM.
On to `NC(=Nc1ccccc1Cl)c1ccccc1N`, for which the TGI is > 100 µM.
With `C[C@@H](C(=O)O)N1C(c2ccco2)=C(/C(C=O)=C\c2ccco2)C(=O)/C1=C\c1ccco1`, the TGI is > 100 µM.
In turn, `O=c1oc2ccccc2c(Nc2ccc3c(c2)Sc2ccccc2O3)c1[N+](=O)[O-]` showed a TGI of 60.6 µM.
The same measure, in the same setting: for `O=C(NN1C(=O)C(Cl)C1c1ccc(Cl)cc1)c1c(Cl)c(Cl)c(Cl)c(Cl)c1-c1nc2ccccc2[nH]1` (configuration not stated) the value was > 100 µM.

A further experiment deals with SF-539 CNS. In words: NCI anticancer screen, dose series, 48 h.
On to `O=C(O)CO[C@@]12C#C/C=C\C#C[C@@H]3N(C(=O)Oc4ccccc4)c4ccccc4[C@]14O[C@@]34CCC2`, for which the TGI was > 100 µM.
Still for that read-out and setting: for `CC(C)(C)C1=C(Br)C(C(C)(C)C)OP1(=O)O` (configuration not stated) the value was > 100 µM; for `Cc1c(-c2ccccc2)cc(O)c2nc3ccccc3n12`, > 100 µM; for `Cc1ccc(C(=O)O)c(/C=C2\Cc3ccc(C)cc3C2=O)c1`, 49.3 µM.
Same read-out and setting: for `CC(C)NC(=O)OCc1c2c(n(C)c1COC(=O)NC(C)C)-c1cc(Cl)c(Cl)cc1CC2` the value was > 100 µM.
`CCOC(=O)c1sc(=S)n(-c2ccc(Cl)cc2)c1-n1cc(-c2ccccc2)c(C#N)c1N` gave a TGI of 50.6 µM.
On the same count and under the same terms, the figure for `Cc1cc(C)c2c(=O)cc(-c3cccc4ccccc34)[nH]c2n1` is > 19.9 µM.
Still for that read-out and setting: for `N#Cc1c(-c2ccc(Cl)cc2)c2c(n(C3OC(CO)C(O)C(O)C3O)c1=S)CCCC2` (configuration not stated) the value was > 100 µM.
Same read-out and setting: for `Nc1cc([N+](=O)[O-])ccc1C(=O)N1CCC[C@H]1CO` the value was > 100 µM.
